What is called IC50 is the point on the concentration scale where inhibition reaches its midpoint.

The values that follow come from patent US11884627B2, “Compounds and compositions for treating conditions associated with LPA receptor activity” (Lhotse Bio, Inc., priority 2022, dated 2024).

Where two headings read alike, the source gives them in different places. Some results are limits rather than exact numbers.

The test has as its target T1, human LPA1 (Homo sapiens, UniProt Q92633).
T1 construct: expressed in transfected cells; host or cells: CHO-K1
Put plainly: In vitro LPA1 calcium flux antagonist assay - Bioduro protocol. In kind it is cell-based. To be noted: CHO-K1 cells overexpressing human LPA1 and G15a, LPA challenge at EC80. Put shortly:
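CHO-K1 cells overexpressing human LPA1 and G15a, serum-starved 4 h, loaded with Fluo-8 AM plus 2.5 mM probenecid in HBSS/20 mM Hepes for 30 min at 37 °C. Compound preincubated 30 min, then LPA challenge at EC80; FLIPR calcium signal, % inhibition relative to DMSO and LPA controls.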
For orientation: Calcium flux is commonly read through the fluorescence of an indicator in the cells.

The mark [1] stands for this setting: calcium mobilization on FLIPR Tetra, read-out: IC50.
The mark [2] stands for this setting: Table B3, read-out: Activity (IC50 class).

T1 sequence (Q92633 whole entry): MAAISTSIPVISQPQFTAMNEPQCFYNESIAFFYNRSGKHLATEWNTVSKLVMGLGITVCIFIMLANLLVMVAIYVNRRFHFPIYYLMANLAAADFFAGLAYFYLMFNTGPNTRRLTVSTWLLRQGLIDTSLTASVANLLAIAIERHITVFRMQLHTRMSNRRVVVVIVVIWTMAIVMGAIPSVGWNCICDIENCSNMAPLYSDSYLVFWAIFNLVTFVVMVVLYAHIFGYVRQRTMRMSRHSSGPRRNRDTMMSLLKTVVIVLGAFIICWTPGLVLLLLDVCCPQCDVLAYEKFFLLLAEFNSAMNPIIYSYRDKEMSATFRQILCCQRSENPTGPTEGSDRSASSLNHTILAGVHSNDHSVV

For `COc1cc(OC)cc(-c2ccc(NC3(C(=O)O)CCOCC3)cc2COC2CCCC2)c1` [Compound 146], the 50% inhibitory concentration (IC50) under setting [1] stood at 0.0772 µM and the IC50 under setting [2] was < 0.1 µM.

On to `CCOc1cccc(-c2ccc(NC3(C(=O)O)CCOCC3)cc2COC2CCCC2)c1C(F)F` [Compound 244], for which the half-inhibitory concentration (IC50) is, setting by setting: under setting [1], 0.00273 µM; under setting [2], < 0.1 µM.

As to `COC(=O)N1CCC(Nc2ccc(-c3cc(OC)c(C)c(OC)c3)c(COC3CCCC3)c2)(C(=O)O)CC1` [Compound 140, 4-((2-((cyclopentyloxy)methyl)-3′,5′-dimethoxy-4′-methyl-[1,1′-biphenyl]-4-yl)amino)-1-(methoxycarbonyl)piperidine-4-carboxylic acid], the half-inhibitory concentration (IC50) under setting [1] came to 0.0288 µM and the concentration for half-maximal inhibition (IC50) under setting [2] was < 0.1 µM.

With `CCOc1cccc(-c2ccc(NC3(C(=O)O)CCOCC3)cc2CCC2CCOC2)c1F` (stereo not shown) [Compound 267], the concentration for half-maximal inhibition (IC50) is, setting by setting: under setting [1], 0.068 µM; under setting [2], < 0.1 µM.

Take `COc1cc(-c2ccc(NC3(C(=O)O)CCOCC3)cc2COC2CCCC2)cc(OC)n1` [Compound 152, 4-((3-((cyclopentyloxy)methyl)-4-(2,6-dimethoxypyridin-4-yl)phenyl)amino)tetrahydro-2H-pyran-4-carboxylic acid]: the half-inhibitory concentration (IC50) reads like this: under setting [1], 0.39 µM; under setting [2], 0.1 to 1 µM.

Turning to `COc1cc(-c2ccc(NC3(C(=O)O)CCOCC3)cc2COC2CCCC2)cc(O)n1` [Compound 218], the IC50 is, setting by setting: under setting [1], > 10 µM; under setting [2], > 1 µM.

As for `COc1cc(-c2ccc(NC3(C(=O)O)CCOCC3)cc2COCC2CC2)c(F)c(OC)c1C` [Compound 364], the IC50 was 0.0829 µM under setting [1] and < 0.1 µM under setting [2].

With `COc1cc(-c2ccc(NC3(C(=O)O)CCCOC3)cc2COC2CCCC2)c(C)c(OC)c1C` (single isomer, unassigned) [Compound 201], the IC50 under setting [1] was 0.0732 µM and the IC50 under setting [2] is < 0.1 µM.

As to `COc1cc(-c2ccc(NC3(C(=O)O)CCOCC3)cc2COC2CCCC2)c(F)cc1C` [Compound 319], the half-inhibitory concentration (IC50) under setting [1] was 0.0767 µM and the IC50 under setting [2] was < 0.1 µM.

Turning to `COc1cc(-c2c(F)cc(NC3(C(=O)O)CCOCC3)cc2COC2CCCC2)cc(OC)c1C` [Compound 147, 4-((2-((cyclopentyloxy)methyl)-6-fluoro-3′,5′-dimethoxy-4′-methyl-[1,1′-biphenyl]-4-yl)amino)tetrahydro-2H-pyran-4-carboxylic acid], the 50% inhibitory concentration (IC50) under setting [1] is 0.0209 µM and the IC50 under setting [2] was < 0.1 µM.

For the molecule `COc1cc(-c2ccc(OC3(C(=O)O)CCOCC3)cc2COC2CC2)c(F)c(OC)c1C` [Compound 343], the IC50 is, setting by setting: under setting [1], 1.13 µM; under setting [2], > 1 µM.

As to `COc1cc(-c2ccc(C3(C(=O)O)CCOCC3)cc2COC2CCCC2)c(Cl)c(OC)c1C` [Compound 235], the IC50 under setting [1] came out at 0.198 µM and the IC50 under setting [2] was 0.1 to 1 µM.

As to `CCOc1cc(-c2ccc(NCCC(=O)O)cc2COC2Cc3ccccc3C2)cc(OCC)c1C` [Compound 113], the IC50 reads like this: under setting [1], 7.13 µM; under setting [2], > 1 µM.

Regarding `COc1cc(-c2ccc(OC3(C(=O)O)CCOCC3)cc2CO[C@@H]2CCOC2)c(F)c(OC)c1C` [Compound 247], the half-maximal inhibitory concentration (IC50) runs as follows: under setting [1], 1.61 µM; under setting [2], > 1 µM.

As for `COC(=O)N1CCCC(Nc2cc(C)c(-c3cc(OC)cc(OC)c3)c(COC3CCCC3)c2)(C(=O)O)C1` (stereo not shown) [Compound 210], the IC50 was > 10 µM under setting [1] and > 1 µM under setting [2].

Turning to `CCOc1cccc(-c2ccc(NC3(C(=O)O)CCOCC3)cc2COC2CCCC2)c1Cl` [Compound 264], the 50% inhibitory concentration (IC50) reads like this: under setting [1], 0.00542 µM; under setting [2], < 0.1 µM.

With `O=C(O)C1(Nc2ccc(-c3cccc(OC4CC4)c3Cl)c(COC3CC3)c2)CCC(F)(F)CC1` [Compound 386], the IC50 runs as follows: under setting [1], 0.00384 µM; under setting [2], < 0.1 µM.

Turning to `CCOc1cccc(-c2ccc(NC3(C(=O)O)CCC(F)(F)CC3)cc2COC2CC2)c1C` [Compound 383], the IC50 is, setting by setting: under setting [1], 0.000847 µM; under setting [2], < 0.1 µM.

Regarding `COc1cc(-c2ccc(NC3(C(=O)O)CCOCC3)cc2COC2CC2)c(Cl)c(OC)c1C` [Compound 293], the concentration for half-maximal inhibition (IC50) by setting is: under setting [1], 0.00572 µM; under setting [2], < 0.1 µM.

Regarding `COc1cc(-c2ccc(NC3(C(=O)O)CCC(C)(OC)CC3)cc2COC2CCCC2)c(F)c(OC)c1C` (single isomer, unassigned) [Compound 237], the 50% inhibitory concentration (IC50) is, setting by setting: under setting [1], 0.0636 µM; under setting [2], < 0.1 µM.

For `COc1cc(-c2ccc(NC3(C(=O)O)CCOCC3)cc2COC2CCC2)c(F)c(OC)c1C` [Compound 263], the IC50 runs as follows: under setting [1], 0.0604 µM; under setting [2], < 0.1 µM.

For `COc1cc(OC)c(C)c(-c2c(F)cc(NC3(C(=O)O)CCOCC3)cc2COC2CCCC2)c1` [Compound 180], the IC50 under setting [1] turned out to be 0.0397 µM and the IC50 under setting [2] was < 0.1 µM.

Consider `CCOc1cccc(-c2ccc(NC3(C(=O)O)CCOCC3)cc2COC2CCCC2)c1C` [Compound 229, 4-((2-((cyclopentyloxy)methyl)-3′-ethoxy-2′-methyl-[1,1′-biphenyl]-4-yl)amino)tetrahydro-2H-pyran-4-carboxylic acid], for which the IC50 under setting [1] stood at 0.00528 µM and the concentration for half-maximal inhibition (IC50) under setting [2] is < 0.1 µM.

Take `COc1cc(OC)nc(-c2c(C)cc(NC3(C(=O)O)CCOCC3)cc2COC2CCCC2)c1` [Compound 170]: the IC50 runs as follows: under setting [1], 1.5 µM; under setting [2], > 1 µM.

Turning to `CCOc1c(C)ccc(-c2ccc(NC3(C(=O)O)CC3)cc2COC2CC2)c1C` [Compound 368], the concentration for half-maximal inhibition (IC50) by setting is: under setting [1], 0.0407 µM; under setting [2], < 0.1 µM.

In the case of `CCOc1cc(OC)cc(-c2ccc(NC3(C(=O)O)CCOCC3)cc2COCC(C)C)c1F` [Compound 395], the IC50 is, setting by setting: under setting [1], 0.00794 µM; under setting [2], < 0.1 µM.

For `COc1cc(-c2ccc(NC3(C(=O)O)CC(OC)C3)cc2COC2Cc3ccccc3C2)cc(OC)c1C` (single isomer, unassigned) [Compound 125], the IC50 by setting is: under setting [1], 0.116 µM; under setting [2], 0.1 to 1 µM.

With `COc1cc(-c2ccc(NC3(C(=O)O)CCOCC3)cc2COCCC(C)C)c(F)c(OC)c1C` [Compound 351], the IC50 runs as follows: under setting [1], 0.00463 µM; under setting [2], < 0.1 µM.

Consider `COc1cc(-c2ccc(OC3(C(=O)O)CCOCC3)cc2CO[C@H]2CCOC2)c(F)c(OC)c1C` [Compound 281], for which the IC50 is, setting by setting: under setting [1], 0.11 µM; under setting [2], 0.1 to 1 µM.

For the molecule `COc1cc(-c2ccc(NC3(C(=O)O)CC(F)(F)C3)cc2COC2CC2)c(F)c(OC)c1C` [Compound 366], the half-maximal inhibitory concentration (IC50) by setting is: under setting [1], 0.055 µM; under setting [2], < 0.1 µM.

On to `CCOC(=O)N1CCC(Nc2cc(C)c(-c3cc(OC)cc(OC)c3)c(COC3CCCC3)c2)(C(=O)O)CC1` [Compound 155], for which the 50% inhibitory concentration (IC50) runs as follows: under setting [1], 0.252 µM; under setting [2], 0.1 to 1 µM.

`CCOc1cncc(-c2ccc(NC3(C(=O)O)CCC(F)(F)CC3)cc2COC2CC2)c1C(F)F` [Compound 406]: the IC50 by setting is: under setting [1], 0.02 µM; under setting [2], < 0.1 µM.

Regarding `COc1cc(OC)c(Cl)c(-c2ccc(NC3(C(=O)O)CCOCC3)cc2COCC(C)C)c1` [Compound 398], the half-inhibitory concentration (IC50) runs as follows: under setting [1], 0.104 µM; under setting [2], 0.1 to 1 µM.

`COc1cc(-c2ccc(NC3(C(=O)O)CCOCC3)cc2COC2Cc3ccccc3C2)cc(OC)c1C(C)O` (stereo not shown) [Compound 135]: the half-inhibitory concentration (IC50) is 0.0278 µM under setting [1] and < 0.1 µM under setting [2].

For `COc1cc(-c2ccc(OC3(C(=O)O)CCOCC3)cc2COC2CC2)c(Cl)c(OC)c1C` [Compound 365], the half-inhibitory concentration (IC50) reads like this: under setting [1], 0.0187 µM; under setting [2], < 0.1 µM.
